Experimental data reported in patent US12257287B2, “Glucagon-derived peptide and use thereof” (Tianjin Institute of Pharmaceutical Research Co., Ltd., priority 2018, dated 2025).
Numbered stars: 1 amine (or outer) side, 2 acyl side, 3 side chain; on linkers, the order of the positions; unused ones are H or OH. Square brackets hold non-standard residues; d marks the D form. Side chains are listed from the residue outwards. Peptide text beside a SMILES is read from it. * marks the point of attachment. C18 diacid = O=C(O)CCCCCCCCCCCCCCCCC(=O)*; γGlu = O=C(O)[C@H](CCC(=O)[*:2])N[*:1]; AEEA = NCCOCCOCC(=O)O; Aib = CC(C)(N)C(=O)O

Assays:
[1] = physchem; type: physicochemical; settings: pH 7.5, Solubility
Experimental: 2 mg of the compound was weighed, dissolved in 1 ml of phosphate buffer solutions with different concentrations (10, 20 mM) and different pH values (7.5, 8.0), and centrifuged, and supernatant was taken. The peak area was measured by HPLC (chromatographic column: Aeris widepore XB-C18 3.6 mm, 4.6×150 mm; mobile phase: A: 0.05% TFA, B: 95% acetonitrile; detection wavelength: 214 nm) and compared with a corresponding sample standard solution, and the relative concentration of the test sample solution is calculated.

[2] = biological target: T1, GC receptor (Homo sapiens, UniProt P47871); assay: GC receptor mediated cAMP production in vitro (HEK293 cells transfected with GC receptor); type: cell-based; settings: 20 min at 37° C., read-out: GCGR (nM EC50)
T1 construct: expressed in transfected cells; host or cells: HEK293 cells
Excerpt: The medium was removed, the cells were lysed, and cAMP values were detected referring to the detection method described for the assay kit.
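For Solubility in this document: compound added at 2 mg per mL of phosphate buffer, with the dissolved amount determined in the supernatant.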

T1 sequence (P47871 26-477): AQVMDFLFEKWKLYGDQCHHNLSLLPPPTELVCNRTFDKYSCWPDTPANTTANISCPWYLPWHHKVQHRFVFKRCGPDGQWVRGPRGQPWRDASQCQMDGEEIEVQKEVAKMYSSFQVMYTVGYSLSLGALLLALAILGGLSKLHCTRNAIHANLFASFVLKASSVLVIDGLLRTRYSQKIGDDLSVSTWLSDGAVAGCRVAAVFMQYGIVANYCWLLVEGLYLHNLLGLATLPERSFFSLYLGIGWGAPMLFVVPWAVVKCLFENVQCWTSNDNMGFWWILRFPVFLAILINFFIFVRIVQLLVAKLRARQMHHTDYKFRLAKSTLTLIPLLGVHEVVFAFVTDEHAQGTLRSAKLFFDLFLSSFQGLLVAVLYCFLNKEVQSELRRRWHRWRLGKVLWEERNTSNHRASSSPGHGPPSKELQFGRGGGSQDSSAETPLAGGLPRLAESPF

SMILES	solubility ([1]; pH 7.5, 10 mM phosphate buffer)	solubility ([1]; pH 7.5, 20 mM phosphate buffer)	EC50 [2]
CC(C)C[C@H](NC(=O)[C@H](Cc1c[nH]c2ccccc12)NC(=O)[C@H](C)NC(=O)[C@@H](NC(=O)[C@H](Cc1ccccc1)NC(=O)[C@H](CCC(=O)O)NC(=O)[C@H](CCCCN)NC(=O)[C@H](C)NC(=O)[C@H](C)NC(=O)[C@H](CCCNC(=N)N)NC(=O)[C@H](CCC(=O)O)NC(=O)[C@H](CC(=O)O)NC(=O)[C@H](CC(C)C)NC(=O)[C@H](Cc1ccc(O)cc1)NC(=O)[C@H](CCCCN)NC(=O)[C@H](CO)NC(=O)[C@H](CCCCNC(=O)COCCOCCNC(=O)COCCOCCNC(=O)CC[C@H](NC(=O)CCCCCCCCCCCCCCCCC(=O)O)C(=O)O)NC(=O)[C@H](CC(=O)O)NC(=O)[C@H](CO)NC(=O)[C@@H](NC(=O)[C@H](Cc1ccccc1)NC(=O)[C@@H](NC(=O)CNC(=O)[C@H](CCC(N)=O)NC(=O)C(C)(C)NC(=O)[C@@H](N)Cc1c[nH]cn1)[C@@H](C)O)[C@@H](C)O)C(C)C)C(=O)N[C@@H](CCC(=O)O)C(=O)N[C@@H](C)C(=O)NCC(=O)NCC(=O)N1CCC[C@H]1C(=O)N[C@@H](CO)C(=O)N[C@@H](CO)C(=O)NCC(N)=O [Compound 24] (H-H[Aib]QGTFTSDK([AEEA-AEEA-γGlu-C18 diacid])SKYLDERAAKEFVAWLEAGGPSSG-NH2)	> 2000 µg/mL	> 2000 µg/mL	–
CC[C@H](C)[C@H](NC(=O)[C@H](Cc1ccccc1)NC(=O)[C@H](CCC(=O)O)NC(=O)[C@H](CCCCN)NC(=O)[C@H](C)NC(=O)[C@H](C)NC(=O)[C@H](CCCNC(=N)N)NC(=O)[C@H](CCC(=O)O)NC(=O)[C@H](CC(=O)O)NC(=O)[C@H](CC(C)C)NC(=O)[C@H](Cc1ccc(O)cc1)NC(=O)[C@H](CCCCN)NC(=O)[C@H](CO)NC(=O)[C@H](CCCCNC(=O)COCCOCCNC(=O)COCCOCCNC(=O)CC[C@H](NC(=O)CCCCCCCCCCCCCCCCC(=O)O)C(=O)O)NC(=O)[C@H](CC(=O)O)NC(=O)[C@H](CO)NC(=O)[C@@H](NC(=O)[C@H](Cc1ccccc1)NC(=O)[C@@H](NC(=O)CNC(=O)[C@H](CCC(N)=O)NC(=O)[C@H](CO)NC(=O)[C@@H](N)Cc1c[nH]cn1)[C@@H](C)O)[C@@H](C)O)C(=O)N[C@@H](C)C(=O)N[C@@H](Cc1c[nH]c2ccccc12)C(=O)N[C@@H](CC(C)C)C(=O)N[C@@H](CCC(=O)O)C(=O)N[C@@H](C)C(=O)NCC(=O)NCC(=O)N1CCC[C@H]1C(=O)N[C@@H](CO)C(=O)N[C@@H](CO)C(=O)NCC(N)=O [Compound 79] (H-HSQGTFTSDK([AEEA-AEEA-γGlu-C18 diacid])SKYLDERAAKEFIAWLEAGGPSSG-NH2; N-terminus assumed)	–	–	0.025 nM
CCCCCCCCCCCCCCCC(=O)N[C@@H](CCC(=O)N[C@@H](CCC(=O)NCCCC[C@H](NC(=O)[C@H](C)NC(=O)[C@H](C)NC(=O)[C@H](CCCNC(=N)N)NC(=O)[C@H](CCC(=O)O)NC(=O)[C@H](CC(=O)O)NC(=O)[C@H](CC(C)C)NC(=O)[C@H](Cc1ccc(O)cc1)NC(=O)[C@H](CCCCN)NC(=O)[C@H](CO)NC(=O)[C@H](Cc1ccc(O)cc1)NC(=O)[C@H](CC(=O)O)NC(=O)[C@H](CO)NC(=O)[C@@H](NC(=O)[C@H](Cc1ccccc1)NC(=O)[C@@H](NC(=O)CNC(=O)[C@H](CCC(N)=O)NC(=O)C(C)(C)NC(=O)[C@@H](N)Cc1c[nH]cn1)[C@@H](C)O)[C@@H](C)O)C(=O)N[C@@H](CCC(=O)O)C(=O)N[C@@H](Cc1ccccc1)C(=O)N[C@H](C(=O)N[C@@H](C)C(=O)N[C@@H](Cc1c[nH]c2ccccc12)C(=O)N[C@@H](CC(C)C)C(=O)N[C@@H](CCC(=O)O)C(=O)N[C@@H](C)C(=O)NCC(=O)NCC(=O)N1CCC[C@H]1C(=O)N[C@@H](CO)C(=O)N[C@@H](CO)C(=O)NCC(N)=O)C(C)C)C(=O)O)C(=O)O [Compound 15] (HELM PEPTIDE1{H.[Aib].Q.G.T.F.T.S.D.Y.S.K.Y.L.D.E.R.A.A.K.E.F.V.A.W.L.E.A.G.G.P.S.S.G.[am]}|PEPTIDE2{[CCCCCCCCCCCCCCCC(=O)[*:2]].[gGlu].[gGlu]}$PEPTIDE1,PEPTIDE2,20:R3-3:R2$$$V2.0; N-terminus assumed)	–	–	0.148 nM
